One data set relates to recombinant human PAM. The data set is described as follows: Formation of bio-ADM from ADM-Gly by recombinant human PAM. It counts as biochemical. The method, then: The formation of bio-ADM from c-terminally glycinated 1-53 Adrenomedullin (ADM-Gly) by recombinant human PAM and the influence of the N-terminal anti-Adrenomedullin antibodies on the bio-ADM formation from ADM-Gly by PAM was investigated.
In a first step, 200 μl per well ADM-Gly (50 ng/mL) dissolved in buffer (300 mM potassium-phosphate, 100 mM NaCl, 10 mM Na-EDTA, 5 g/L BSA, pH 7.0) was added to microtiter plate wells that were precoated with an anti-MR-ADM antibody, and were incubated for 1 h at 22° C. under agitation (600 rpm). Unbound material was removed by washing. In a second step, varying concentrations (0-100 μg/mL) of either N-terminal- (HAM8101), C-terminal anti-Adrenomedullin antibody specifically blocking the glycinated C-terminus of ADM-Gly or an unspecific antibody (control antibody) was added to the wells (200 μl per well) for 1 h at 22° C. under agitation (600 rpm). The respective antibodies were diluted in buffer as described above. Unbound antibodies were removed by washing. […] After a final washing step, the remaining chemiluminescence was measured for 1 s per well with a Centro LB 960 microtiter plate luminescence reader (Berthold Technologies). To evaluate the velocity of the enzyme PAM, the signal for bio-ADM measured at t=0 minutes was subtracted from the signal for bio-ADM at t=40 minutes for each antibody concentration. […]

For the next data set, the system named is native human plasma PAM. The data set is described as follows: Formation of bio-ADM by native human PAM in Li-Heparin plasma, with and without exogenous ADM-Gly. It counts as biochemical. The settings on record: without addition of exogenous ADM-Gly; HAM8101 300 μg/mL; 90 minutes. As for the experimental part: In a further experiment we investigated the formation of bio-ADM from ADM-Gly by native human plasma PAM and the influence of N-terminal- and mid-regional anti-adrenomedullin antibodies.
Human Li-Heparin plasma (pool of 3 specimen) was used as source of human native PAM. The amidation reaction was performed in a total volume of 120 μl at 37° C. 96 μl of plasma were spiked with either HAM8101 (375 μg/mL final concentration) or ADM-Gly (5 ng/mL final concentration) or with both. As control, equal volumes of 100 mM Tris-HCl, pH 7.5 were added to untreated plasma. The prepared samples were allowed to chill for 15 minutes at room temperature. The amidation reaction was started by addition of 24 μl of PAM-reaction buffer resulting in final concentrations of 2 mM L-Ascorbate and 5 μM CuSO4, respectively. The final concentrations of HAM8101 and ADM-Gly were 300 μg/mL and 4 ng/mL, respectively. The reaction was allowed to proceed for 90 minutes at 37° C. After 0 min, 30 min, 60 min and 90 min of incubation, the reaction was stopped by addition of 20 mM EDTA (final concentration). The concentration of bio-ADM in the reaction sample was quantified using the Sphingotest® bio-ADM immunoassay as described recently (Weber et al. 2017. JALM 2(2): 222-233).

The next data set deals with human native PAM. The data set is described as follows: Native human PAM activity in human serum with NT- and MR-anti-ADM antibodies. The data set is classed as biochemical. The settings on record: antibody 100 μg/mL; FIG. 9. As for the experimental part:
Human serum was used as source of human native PAM. Each sample (20 μl) was diluted two-fold in 100 mM Tris-HCl in duplicate. The amidation reaction was initiated by addition of 160 μl of NT-ADM antibodies (HAM8101, AK1373, AK1388, AK1398 or AK1434) or MR-ADM antibodies (ADM43, ADM38, ADM41, ADM2901, ADM2902 and ADM2903) containing PAM-reaction buffer (100 mM Tris-HCl, pH 7.5, 6.25 μM CuSO4, 2.5 mM Ascorbate, 125 μg/mL Catalase, 62.5 μM Amastatin, 250 μM Leupeptin, and 36 ng/mL synthetic 1-53 Adrenomedullin-Gly as substrate). The final antibody concentrations were 100 μg/mL, respectively. Afterwards, 100 μl of each individual reaction of duplicated samples were combined and transferred into 20 μl of 200 mM EDTA to terminate the amidation reaction and thus to generate a t=0 minutes reaction time-point followed by incubation at 37° C. for 40 minutes. Afterwards the non-terminated reactions were stopped with 10 μl of 200 mM EDTA. To determine the PAM activity in NT-ADM antibody containing samples, bio-ADM was quantified in each reaction using the Sphingotest® bio-ADM immunoassay (Weber et al. 2017, supra). The MR-ADM antibody containing reaction was transferred to an alternative bio-ADM assay (description below). A control reaction without antibodies was measured in both bio-ADM assays. For each sample the difference between t=40 min and t=0 min bio-ADM concentration was calculated. […]

A further data set concerns native PAM. Kind of data set: ADM maturation activity (AMA) of native PAM in Li-Heparin plasma with antibody and varying L-ascorbate. It counts as biochemical, human. The settings on record: FIG. 15. The method, then: A serial antibody-dilution with concentrations of 0, 5, 10, 50, 100, 500 and 3000 μg/mL per well, respectively (in 20 μl) were pipetted into 96-well micro-titer plates. Then 160 μl PAM reaction buffer (100 mM Tris-HCl, 6.25 μM CuSO4, 62.5 μM amastatin, 250 μM leupeptin, 36 ng/mL ADM-Gly) with varying L-ascorbate concentrations was added to the wells and incubated for 15 min. Afterwards the reaction was started by addition of 20 μl of Li-Heparin plasma, containing native PAM Immediately after addition of plasma, 100 μl from each well were removed and inactivated by addition of EDTA (20 mM final concentration) to generate a t=0 minutes reaction point. Inactivated and non-inactivated samples were incubated for 40 minutes at 37° C. and the reaction in non-inactivated samples was stopped as described above. For quantification of produced ADM-NH2 the Sphingotest® bio-ADM Kit (Weber et al. 2017) was utilized according to manufacturer's manual. The ADM maturation activity (AMA) was calculated according to equation 1 (DF=dilution factor of sample matrix).

Take “HAM8101: humanized N-terminal anti-ADM antibody, heavy chain SEQ ID No. 35, light chain SEQ ID No. 36”: the “PAM activity compared to the reaction without antibody addition (set at 100%)” value in the data set with recombinant human PAM (10 μg/mL antibody, 40 minutes, 37° C., 2 mM L-Ascorbate) turned out to be 233%. In addition, the “influence on conversion of ADM-Gly to bio-ADM by PAM” value with recombinant human PAM (antibody 0-100 μg/mL, FIG. 7) is “significant accelerating effect”. Further, the “change in bio-ADM concentration” value with native human plasma PAM is recorded as “No change in bio-ADM concentration”. Also, in the data set on human native PAM, the “influence on amidating activity compared within the tested antibodies of the same region” value is “showed the strongest influence”. Also, the “increase of the bio-ADM formation of PAM” value in the data set on native PAM (100 μg/mL of HAM8101 in the amidation assay, Li-Heparin plasma) was 40%. Moreover, the “effect on the amidation for each ascorbate concentration assayed” value in the data set with native PAM (HAM8101 0-3000 μg/mL) was “concentration dependent positive effect on the amidation”.

The record behind these values is patent US12662530B2, “Anti-ADM-antibodies binding to the free N-terminus for accelerated transition of ADM-Gly to bio-ADM in patients with ADM-Gly/ bio-ADM ratio above a threshold and combination with vitamin C” (SphingoTec GmbH, priority 2020, dated 2026).
